These results are taken from US12077555B2, “STAT degraders and uses thereof” (Kymera Therapeutics, Inc., priority 2019, dated 2024).

A value given as a limit tells only on which side of the number the result lay.

The DC50 is the midpoint of the concentration-degradation curve.

The assay has as its target STAT3 (Homo sapiens, UniProt P40763). The assay is described as follows: Quantitation of STAT3 degradation in A549 cells by Western blot. In kind it is cell-based. Also on record: expressed in transfected cells; host or cells: A549. Particulars: read-out: A549 DC50, 24 hours, tested up to 30 μM or 10 μM. A digest of the protocol:
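A549 cells treated 24 h at 37° C with compound at 30, 10, 3, 1, 0.3 μM or DMSO; RIPA lysates analysed by SDS-PAGE/Western blot for total STAT3, β-actin as loading control, LI-COR fluorescence read-out. DC50 derived by sigmoidal fit of dose-dependent degradation.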
A general note: In western blotting, separated proteins are transferred to a membrane and probed.

STAT3, sequence (P40763 whole entry): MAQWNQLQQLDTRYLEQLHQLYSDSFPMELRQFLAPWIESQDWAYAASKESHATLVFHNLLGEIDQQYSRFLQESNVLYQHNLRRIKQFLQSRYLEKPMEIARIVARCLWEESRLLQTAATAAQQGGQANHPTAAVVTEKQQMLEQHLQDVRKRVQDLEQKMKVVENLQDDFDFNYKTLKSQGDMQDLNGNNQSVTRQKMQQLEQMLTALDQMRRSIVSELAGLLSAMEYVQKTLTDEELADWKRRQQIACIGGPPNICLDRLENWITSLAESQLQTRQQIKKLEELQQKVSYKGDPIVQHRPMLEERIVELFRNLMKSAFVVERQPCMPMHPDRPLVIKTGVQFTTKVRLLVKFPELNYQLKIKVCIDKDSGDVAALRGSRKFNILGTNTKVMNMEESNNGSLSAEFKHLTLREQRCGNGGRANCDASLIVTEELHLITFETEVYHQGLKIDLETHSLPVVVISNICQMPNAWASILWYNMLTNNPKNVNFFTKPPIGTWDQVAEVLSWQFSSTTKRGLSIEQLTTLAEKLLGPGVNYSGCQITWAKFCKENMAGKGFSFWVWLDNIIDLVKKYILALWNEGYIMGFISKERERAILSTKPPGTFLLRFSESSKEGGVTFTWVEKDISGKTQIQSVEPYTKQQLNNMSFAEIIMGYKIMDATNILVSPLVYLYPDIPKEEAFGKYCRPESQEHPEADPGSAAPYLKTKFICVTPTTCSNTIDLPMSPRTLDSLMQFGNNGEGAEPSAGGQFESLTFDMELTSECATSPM

For `Cc1ncsc1-c1ccc(CNC(=O)[C@@H]2C[C@@H](O)CN2C(=O)[C@@H](NC(=O)CCc2ccc3cc(CO[C@H](C)[C@H](CCC(N)=O)NC(=O)[C@@H]4Cc5cccc6c5N4C(=O)[C@@H](NC(=O)c4cc5cc(C(=O)P(=O)(O)O)ccc5[nH]4)CC6)ccc3c2)C(C)(C)C)cc1` [Compound I-87, diammonium 2-[[(2S,11S)-2-[[(3S,4R)-1-carbamoyl-4-[[6-(2-[[(2S)-1-[(2S,4R)-4-hydroxy-2-([[4-(4-methyl-1,3-thiazol-5-yl)phenyl]methyl]carbamoyl)pyrrolidin-1-yl]-3,3-dimethyl-1-oxobutan-2-yl]carbamoyl]ethyl)naphthalen-2-yl]methoxy]pentan-3-yl]carbamoyl]-12-oxo-1-azatricyclo[6.4.1.0^[4,13]]trideca-4(13),5,7-trien-11-yl]carbamoyl]-1H-indole-5-carbonylphosphonate], the DC50 is under 30 µM.

`Cn1c(=O)n(C2CCC(=O)NC2=O)c2ccc(C#CCCCCC(=O)N3CC[C@H]4CC[C@@H](C(=O)N[C@@H](CCC(N)=O)C(=O)NC(c5ccccc5)c5ccccc5)N4C(=O)[C@@H](NC(=O)c4cc5cc(C(=O)P(=O)(O)O)ccc5[nH]4)C3)cc21` (stereo partly drawn) [Compound I-99, 2-[[(5S,8S,10aR)-8-[[(1S)-3-carbamoyl-1-(diphenylmethylcarbamoyl)propyl]carbamoyl]-3-[7-[1-(2,6-dioxopiperidin-3-yl)-3-methyl-2-oxo-1,3-benzodiazol-5-yl]hept-6-ynoyl]-6-oxo-octahydropyrrolo[1,2-a][1,5]diazocin-5-yl]carbamoyl]-1H-indole-5-carbonylphosphonic acid]: the DC50 was under 30 µM.

For the molecule `C/C(=C\C(=O)N[C@H]1CCc2cccc3c2N(C1=O)[C@H](C(=O)N[C@@H](CCC(N)=O)[C@@H](C)OCc1ccc(CCCOCCCCCc2cccc4c2n(C)c(=O)n4C2CCC(=O)NC2=O)cc1)C3)c1ccc(C(F)(F)P(=O)(OCOC(=O)C(C)(C)C)OCOC(=O)C(C)(C)C)cc1` (some centres unmarked) [Compound I-29], the DC50 was over 10 µM.

Consider `C/C(=C\C(=O)N[C@H]1CCc2cccc3c2N(C1=O)[C@H](C(=O)N[C@@H](CCC(N)=O)[C@@H](C)OCc1ccc(CCCCOCC(=O)N[C@H](C(=O)N2C[C@@H](O)C[C@H]2C(=O)NCc2ccc(-c4scnc4C)cc2)C(C)(C)C)cc1)C3)c1ccc(C(F)(F)P(=O)(OCOC(=O)C(C)(C)C)OCOC(=O)C(C)(C)C)cc1` [Compound I-21], for which the DC50 is over 30 µM.

Consider `Cc1ncsc1-c1ccc(CNC(=O)[C@@H]2C[C@@H](O)CN2C(=O)[C@@H](NC(=O)CCCCCCc2ccc(CO[C@H](C)[C@H](CCC(N)=O)NC(=O)[C@@H]3Cc4cccc5c4N3C(=O)[C@@H](NC(=O)c3cc4cc(C(=O)P(=O)(O)O)ccc4[nH]3)CC5)cc2)C(C)(C)C)cc1` [Compound I-100], for which the DC50 was under 30 µM.

As for `C/C(=C\C(=O)N[C@H]1CCc2cccc3c2N(C1=O)[C@H](C(=O)N[C@@H](CCC(N)=O)[C@@H](C)OCc1ccc(CCCCC(=O)N[C@H](C(=O)N2C[C@H](O)C[C@H]2C(=O)NC2(c4ccc(-c5scnc5C)cc4)CC2)C(C)(C)C)cc1)C3)c1ccc(C(F)(F)P(=O)(O)O)cc1` [Compound I-92], the DC50 is over 30 µM.

For the molecule `Cn1c(=O)n(C2CCC(=O)NC2=O)c2cccc(CCCCCCCC(=O)N3CC[C@H]4CC[C@@H](C(=O)N[C@@H](CCC(N)=O)C(=O)NC(c5ccccc5)c5ccccc5)N4C(=O)[C@@H](NC(=O)c4cc5cc(C(=O)P(=O)(O)O)ccc5[nH]4)C3)c21` (some centres unmarked) [Compound I-91], the DC50 was under 30 µM.

For `C/C(=C\C(=O)N[C@H]1CCc2cccc3c2N(C1=O)[C@H](C(=O)NC(CCC(N)=O)[C@@H](C)OCc1ccc(CCCOCC(=O)N[C@H](C(=O)N2C[C@H](O)CC2C(=O)NCc2ccc(-c4scnc4C)cc2)C(C)(C)C)cc1)C3)c1ccc(C(F)(F)P(=O)(OCOC(=O)C(C)(C)C)OCOC(=O)C(C)(C)C)cc1` (some centres unmarked) [Compound I-35], the DC50 was under 30 µM.
